Test [1] addresses T1, GIPR (Homo sapiens, UniProt P48546).
T1 sequence (P48546 22-466): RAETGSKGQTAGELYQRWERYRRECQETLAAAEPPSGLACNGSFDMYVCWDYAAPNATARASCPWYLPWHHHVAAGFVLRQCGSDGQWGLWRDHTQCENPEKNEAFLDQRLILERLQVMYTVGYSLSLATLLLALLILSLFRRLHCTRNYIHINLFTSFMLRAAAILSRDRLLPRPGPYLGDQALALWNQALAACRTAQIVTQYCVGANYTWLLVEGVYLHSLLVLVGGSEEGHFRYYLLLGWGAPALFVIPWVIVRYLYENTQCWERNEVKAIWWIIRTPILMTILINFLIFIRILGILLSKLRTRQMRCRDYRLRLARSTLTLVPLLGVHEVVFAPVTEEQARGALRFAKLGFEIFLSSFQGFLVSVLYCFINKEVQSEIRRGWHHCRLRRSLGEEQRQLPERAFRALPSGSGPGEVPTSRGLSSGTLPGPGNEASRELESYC
The test is described as follows: β-arrestin 2 recruitment (BRET). The following applies: GIPR WT, HEK293T; for EC50: read-out: β-arrestin 2 recruitment pEC50 (converted); for Emax: HEK-293T. The test is classed as cell-based. More on the design: expressed in transfected cells; host or cells: HEK293T. As for the experimental part:
After cells were grown for 24 h, transiently transfected cells were then seeded onto poly-D-lysine coated 96-well culture plates (50,000 cells/well) in DMEM with 10% FBS. Cells were grown for 20 h before incubation in assay buffer (HBSS supplemented with 10 mM HEPES, 0.1% BSA or 0.1% casein, pH 7.4) for 30 min at 37 °C. Coelentrazine-h (Yeasen Biotech) was added to a final concentration of 5 μM for 5 min before bioluminescence resonance energy transfer (BRET) readings were made using an EnVision plate reader (PerkinElmer). BRET baseline measurements were collected for 15 cycles prior to ligand addition. After which, BRET was measured for 55 cycles.

Test [2] concerns the target GLP-1R (Homo sapiens, UniProt P43220, Y148A). The test is described as follows: cAMP accumulation assay, GLP-1R WT, mutant or modified constructs. The test is classed as cell-based. The following applies: GLP-1R Y148A, HEK293T; for Emax: HEK-293T. More on the design: Flag; expressed in transfected cells; host or cells: HEK293T. In short, it runs like this: (§1)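 HEK293T cells transiently expressing wild-type, mutant or modified human GLP-1R (HA signal peptide constructs) were used. Cells were stimulated with peptide agonists for 40 min at room temperature in HBSS with 0.5 mM IBMX and 0.1% BSA or casein. cAMP was quantified by LANCE Ultra TR-FRET (620/650 nm).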

Test [3] has as its target GLP-1R (Homo sapiens, UniProt P43220, W214A). The description is as above. The test is classed as cell-based. More on the design: Flag; expressed in transfected cells; host or cells: HEK293T. The following applies: GLP-1R W214A, HEK293T; for Emax: HEK-293T. In short, it runs like this: as §1
In test [4] the test system is GCGR. The test is described as follows: cAMP accumulation assay, GCGR WT, mutant or modified constructs. The test is classed as cell-based, human. The following applies: GCGR triple mutant (Q142A + D195A + R199A) vs WT. Here is the method: Human embryonic kidney 293 cells containing SV40 large T-antigen (HEK293T) were cultured in DMEM (Gibco) supplemented with 10% (v/v) fetal bovine serum (FBS, Gibco), 1 mM sodium pyruvate (Gibco) and 100 units/mL penicillin and 100 μg/mL streptomycin at 37 °C in 5% CO2. Chinese hamster ovary (CHO-K1) cells were cultured in F-12 (Gibco) containing 10% FBS, 100 units/mL penicillin and 100 μg/mL streptomycin at 37 °C in 5% CO2. For cAMP and receptor expression assays, HEK293T cells were seeded into 6-well cell culture plates at a density of 7 × 10^5 cells per well. After overnight incubation, cells were transfected with GIPR, GLP-1R or GCGR construct using Lipofectamine 2000 or Lipofectamine 3000 transfection reagent (Invitrogen). For whole-cell binding assay, CHO-K1 cells were seeded into 96-well fibronectin-treated cell culture plates at a density of 3 × 10^4 cells per well. After overnight incubation, cells were transfected with GIPR, GLP-1R or GCGR construct using Lipofectamine 2000 transfection reagent (Invitrogen). Following 24 h culturing, the transfected cells were ready for use. […]
For GIPR, GLP-1R and GCGR, multi-targeting agonist stimulated cAMP accumulation was measured by a LANCE Ultra cAMP kit (PerkinElmer). […] Plates were incubated at RT for 1 h and the fluorescence intensity measured at 620 nm and […] by an EnVision multilabel plate reader (PerkinElmer).
In general terms: Changes in cAMP serve as a functional read-out for many G protein-coupled receptors.

The conditions of test [5]: clinical trial outcome; Drugs@FDA, ChemBL, ClinicalTrials.gov; cited from earlier work.
Setting [6] is: read-out: cAMP pEC50 (converted).

Broadly, the Emax is the greatest response seen or fitted, relative to the assay's reference.

GLP-1R (Homo sapiens, UniProt P43220, W214A), sequence (P43220 24-463 W214A): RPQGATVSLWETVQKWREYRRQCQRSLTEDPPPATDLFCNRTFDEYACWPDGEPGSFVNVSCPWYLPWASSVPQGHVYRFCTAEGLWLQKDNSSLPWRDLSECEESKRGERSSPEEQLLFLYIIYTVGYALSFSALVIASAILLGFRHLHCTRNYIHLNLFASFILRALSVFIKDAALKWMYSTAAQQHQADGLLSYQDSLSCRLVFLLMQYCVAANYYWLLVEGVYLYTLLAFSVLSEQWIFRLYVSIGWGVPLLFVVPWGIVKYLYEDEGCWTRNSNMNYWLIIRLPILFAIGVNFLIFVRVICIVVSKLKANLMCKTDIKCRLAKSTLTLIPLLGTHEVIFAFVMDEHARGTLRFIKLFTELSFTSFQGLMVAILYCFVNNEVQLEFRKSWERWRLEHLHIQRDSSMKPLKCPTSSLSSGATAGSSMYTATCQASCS
GLP-1R (Homo sapiens, UniProt P43220, Y148A), sequence (P43220 24-463 Y148A): as the sequence (P43220 24-463 W214A) above, with Y125A, A191W counted along it

For `CC[C@H](C)[C@H](NC(=O)[C@H](CC(C)C)NC(=O)[C@H](Cc1c[nH]c2ccccc12)NC(=O)[C@H](CCC(N)=O)NC(=O)[C@@H](NC(=O)[C@H](Cc1ccccc1)NC(=O)[C@H](C)NC(=O)[C@H](CCCCN)NC(=O)[C@H](CCC(N)=O)NC(=O)[C@H](C)NC(=O)[C@@H](NC(=O)[C@H](CCCCN)NC(=O)[C@H](CC(=O)O)NC(=O)[C@H](CC(C)C)NC(=O)C(C)(C)NC(=O)[C@@H](NC(=O)[C@H](CO)NC(=O)[C@H](Cc1ccc(O)cc1)NC(=O)[C@H](CC(=O)O)NC(=O)[C@H](CO)NC(=O)[C@@H](NC(=O)[C@H](Cc1ccccc1)NC(=O)[C@@H](NC(=O)CNC(=O)[C@H](CCC(=O)O)NC(=O)C(C)(C)NC(=O)[C@@H](N)Cc1ccc(O)cc1)[C@@H](C)O)[C@@H](C)O)[C@@H](C)CC)[C@@H](C)CC)C(C)C)C(=O)N[C@@H](C)C(=O)NCC(=O)NCC(=O)N1CCC[C@H]1C(=O)N[C@@H](CO)C(=O)N[C@@H](CO)C(=O)NCC(=O)N[C@@H](C)C(=O)N1CCC[C@H]1C(=O)N1CCC[C@H]1C(=O)N1CCC[C@H]1C(=O)N[C@@H](CO)C(N)=O` [Non-acylated tirzepatide], the EC50 in test [1] (0.1% casein) was 14.8 nM. The maximal response (Emax) in test [1] (0.1% BSA) came to 57.1 ± 1.97%; in test [1] (0.1% casein), 59.8 ± 1.01%.
`CCCCCCCCCCCCCCCC(=O)N[C@@H](CCC(=O)NCCCC[C@H](NC(=O)[C@H](CC(=O)O)NC(=O)[C@H](CO)NC(=O)[C@@H](NC(=O)[C@H](Cc1ccccc1)NC(=O)[C@@H](NC(=O)CNC(=O)[C@H](CCC(N)=O)NC(=O)C(C)(C)NC(=O)[C@@H](N)Cc1c[nH]cn1)[C@@H](C)O)[C@@H](C)O)C(=O)N[C@@H](CO)C(=O)N[C@@H](CCCCN)C(=O)N[C@@H](Cc1ccc(O)cc1)C(=O)N[C@@H](CC(C)C)C(=O)N[C@@H](CC(=O)O)C(=O)N[C@@H](CCC(=O)O)C(=O)N[C@@H](CCCNC(=N)N)C(=O)N[C@@H](C)C(=O)N[C@@H](C)C(=O)N[C@@H](CCC(N)=O)C(=O)N[C@@H](CC(=O)O)C(=O)N[C@@H](Cc1ccccc1)C(=O)N[C@H](C(=O)N[C@@H](CCC(N)=O)C(=O)N[C@@H](Cc1c[nH]c2ccccc12)C(=O)N[C@@H](CC(C)C)C(=O)N[C@@H](CC(C)C)C(=O)N[C@@H](CC(=O)O)C(=O)NCC(=O)NCC(=O)N1CCC[C@H]1C(=O)N[C@@H](CO)C(=O)N[C@@H](CO)C(=O)NCC(=O)N[C@@H](C)C(=O)N1CCC[C@H]1C(=O)N1CCC[C@H]1C(=O)N1CCC[C@H]1C(=O)N[C@@H](CO)C(N)=O)C(C)C)C(=O)O` [Peptide 20]: the EC50 in test [2] (setting [6]) was 0.00501 nM; in test [3] (setting [6]) it was 0.00977 nM. Further, the values for the maximal effect (Emax) in test [2] and in test [3] were 101 ± 1.26% and 100.4 ± 0.94%, respectively. Further, the “reduction of potency (cAMP) by receptor mutation” value in test [4] stood at 93 fold.
Consider `CC[C@H](C)[C@H](NC(=O)[C@H](CC(C)C)NC(=O)[C@H](Cc1c[nH]c2ccccc12)NC(=O)[C@H](CCC(N)=O)NC(=O)[C@@H](NC(=O)[C@H](Cc1ccccc1)NC(=O)[C@H](C)NC(=O)[C@H](CCCCNC(=O)COCCOCCNC(=O)COCCOCCNC(=O)CC[C@H](NC(=O)CCCCCCCCCCCCCCCCCCC(=O)O)C(=O)O)NC(=O)[C@H](CCC(N)=O)NC(=O)[C@H](C)NC(=O)[C@@H](NC(=O)[C@H](CCCCN)NC(=O)[C@H](CC(=O)O)NC(=O)[C@H](CC(C)C)NC(=O)C(C)(C)NC(=O)[C@@H](NC(=O)[C@H](CO)NC(=O)[C@H](Cc1ccc(O)cc1)NC(=O)[C@H](CC(=O)O)NC(=O)[C@H](CO)NC(=O)[C@@H](NC(=O)[C@H](Cc1ccccc1)NC(=O)[C@@H](NC(=O)CNC(=O)[C@H](CCC(=O)O)NC(=O)C(C)(C)NC(=O)[C@@H](N)Cc1ccc(O)cc1)[C@@H](C)O)[C@@H](C)O)[C@@H](C)CC)[C@@H](C)CC)C(C)C)C(=O)N[C@@H](C)C(=O)NCC(=O)NCC(=O)N1CCC[C@H]1C(=O)N[C@@H](CO)C(=O)N[C@@H](CO)C(=O)NCC(=O)N[C@@H](C)C(=O)N1CCC[C@H]1C(=O)N1CCC[C@H]1C(=O)N1CCC[C@H]1C(=O)N[C@@H](CO)C(N)=O` [Tirzepatide], for which the Emax in test [2] stood at 102 ± 2.33%; in test [3] it was 99.1 ± 1.05%; in test [1] (0.1% BSA), 53.4 ± 2.32%; in test [1] (0.1% casein), 53.4 ± 1.93%. Further, in test [5], the Body weight was -5.30 ~ -5.70 kg or %. Besides, the Fasting plasma glucose in test [5] is -60.70 ~ -74.20 mg/dL. Further, the EC50 in test [1] (0.1% casein) was 18.6 nM.

(Values after PMC8881610 (Nature Communications, 2022).)
